Here are results for 14 compounds from PubChem BioAssay AID1963427 (Molecular Pharmacology Branch, DTP, NCI, 2024).

Several values for one entry are separate records, joined by “and”; a condition that tells them apart may be missing. Equal values may be shown once.

In this experiment the test system is 317291-083-R-J1-PDC complex spheroid growth. The experiment in a line: Anticancer human tumor 317291-083-R-J1-PDC patient-derived soft tissue sarcoma cell line growth inhibition [Asc]. As to conditions: for viability, T/C: stronger effect = lower value. On the procedure:
Multicellular complex tumor spheroid response to apoptosis pathway targeting inhibitors Alrizomadlin, Pelcitoclax, and Dasminapant in combination with a variety of drugs and investigational agents in selected tumor cell lines
The MDM2 inhibitor alrizomadlin, the Bcl-2/Bcl-xL inhibitor pelcitoclax, and the IAPs inhibitor dasminapant were evaluated both individually and in combination with standard of care and investigational anticancer small molecules within a complex spheroid model of solid tumors. . Complex spheroids include a stromal component modeled by human endothelial cells (HUVEC) and fibroblasts modeled by human mesenchymal stem cells (MSCs). The concentration ranges selected for each drug and investigational agent were based upon clinically achievable concentrations if the clinical Cmax of the agent was known.
Compounds. The drugs and investigational agents: alrizomadlin (APG-115; NSC831270), pelcitoclax (APG-1252; NSC835773), dasminapant (APG-1387;NSC834197), TAK-243 (NSC785004), copanlisib (NSC809693), olaparib (NSC753686), talazoparib (NSC767125), cobimetinib (NSC 768068), eltanexor (KPT-8602, NSC 794443), abemaciclib (NSC 768073), sotorasib (NSC818433), adagrasib (NSC 831453), MRTX-1133 (NSC 836407), Iadademestat (ORY1001, NSC 806812), and RMC-4630 (NSC839698), were obtained from the NCI Developmental Therapeutics Program Chemical Repository. The FDA-approved anticancer drug set is available from the Developmental Therapeutics Program at https://dtp.cancer.gov/organization/dscb/obtaining/available plates.htm. […] The stock solutions were prepared in dimethyl sulfoxide (DMSO, Sigma-Aldrich, St. Louis, MO, cat. D2650) at 800-fold the tested concentration and stored at -70 degrees C prior to their use. All drugs and investigational agents were tested over a range starting from a high concentration at or near the clinical Cmax and decreasing in half-log increments. If the clinical Cmax for an agent had not been determined, the highest concentration tested was 10 microM.
The patient-derived cancer (PDC) cell lines include five colon adenocarcinomas: 186277-243-T-J2-PDC, 616215-338-R-J1-PDC, 439559-082-T-J2-PDC, 463943-066-T-J2-PDC, and 519858-162-T-J1-PDC; three pancreatic carcinomas: 323965-272-R-J2-PDC, 521955-158-R6-J3-PDC, and 521955-158-R2-J5-PDC; two uterine sarcomas: 327498-152-R-J2-PDC and 993429-296-R-J1-PDC; two rhabdomyosarcomas: 755483-174-R-J1-PDC and 772245-204-R-J1-PDC; two soft tissue sarcomas: 126254-015-R-J1-PDC and 494315-158-R-J1-PDC; two malignant fibrous histiocytomas: 317291-083-R-J1-PDC and 596521-263-R-J1-PDC; two breast carcinomas: 171881-019-R-J1-PDC and 885512-296-R-J2-PDC; and one ovarian carcinoma: 6556581-035-R-J-PDC were obtained from the NCI PDMR, (https://pdmr.cancer.gov). The established cell lines HSSY-2 synovial sarcoma (RRID:CVCL 8719), SYO-1 synovial sarcoma (RRID:CVCL_7146), MPNST malignant peripheral neural sheath tumor were obtained from the Sloan Kettering Institute. The following established cell lines were purchased from the American Type Culture Collection (ATCC, Manassas, VA), Sor the received from the NCI repository:, PANC-1 pancreatic carcinoma (CRL-1469, RRID:CVCL_0480), OVCAR-5 ovarian carcinoma (RRID:CVCL_1628), OVCAR-8 ovarian carcinoma (RRID:CVCL_1629), , MCF-7 breast carcinoma (CRL-12584, RRID:CVCL_0031), MDA-MB-231 breast carcinoma (CRL-12532, RRID:CVCL_0062), NCI-H1876 small cell lung carcinoma (CRL-5902, RRID:CVCL_1503), NCI-H510A small cell lung carcinoma (HTB-184, RRID:CVCL_1565), NCI-H1417 (CRL-5869, RRID:CVCL_1469), and NCI-H196 small cell lung carcinoma (CRL-5823, RRID:CVCL_1509). Dr. Peter Houghton (Greehey Children's Cancer Research Institute, University of Texas Health Science Center, San Antonio, TX) provided Rh-18 rhabdomyosarcoma (RRID:CVCL_1659). Pooled donor human umbilical vein endothelial cells (HUVEC, Lonza, cat. CC-2519) and human mesenchymal stem cells (hMSC, Lonza, cat. PT-2501) were purchased from Lonza (Walkersville, MD).
Cell Culture. […]

The mark [1] stands for this setting: compound alone, run of 11/07/2022.
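Note: compound exposure lasted seven days after spheroids formed for three days.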
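Throughout, for viability, T/C: 100% = DMSO vehicle control wells.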

As for `C#Cc1c(F)ccc2cc(O)cc(-c3ncc4c(N5CC6CCC(C5)N6)nc(OCC56CCCN5CC(F)C6)nc4c3F)c12` (configuration not stated), the viability, T/C (compound 0.0316 µM) was 86.9% and 91% and 105%; the viability, T/C (compound 0.1 µM) is 84.9% and 99.4% and 85.2%; the viability, T/C (compound 0.316 µM) is 87.6% and 108% and 105%; the viability, T/C (compound 1 µM) is 97.5% and 103% and 102%; the viability, T/C (compound 3.16 µM) is 95.8% and 90.8% and 94.6%; the viability, T/C (compound 10 µM) is 56.1% and 72.7% and 85.2%. Further, the IC50 (curve of compound) was above 10000 nM.

Regarding `C=C(F)C(=O)N1CCN(c2nc(OCC3CCCN3C)nc3c2CCN(c2cccc4cccc(Cl)c24)C3)CC1CC#N` (configuration not stated), the viability, T/C is 83.4% and 107% (2×) (compound 0.0316 µM); 76.7% and 88.1% and 99.1% (compound 0.1 µM); 93.2% and 95.1% and 113% (compound 0.316 µM); 89% and 89.6% and 87.7% (compound 1 µM); 47% and 39% and 55.3% (compound 3.16 µM); 0.16% and 0.29% and 0.23% (compound 10 µM). Moreover, the IC50 (curve of compound) was 2890 nM and 2460 nM and 3470 nM.

As for `C=CC(=O)N1CCN(c2nc(=O)n(-c3c(C)ccnc3C(C)C)c3nc(-c4c(O)cccc4F)c(F)cc23)C(C)C1` (configuration not stated), the viability, T/C by setting is: (compound 0.0316 µM) 94.7% and 115% and 91.3%; (compound 0.1 µM) 116% and 91.4% and 84%; (compound 0.316 µM) 97.3% and 95.1% and 99.8%; (compound 1 µM) 117% and 90.1% and 95.4%; (compound 3.16 µM) 92.4% and 89.8% and 78.8%; (compound 10 µM) 61% and 73.1% and 78%. In addition, the 50% inhibitory concentration (IC50) (curve of compound) was above 10000 nM.

With `CCN1C(C(=O)NC23CCC(C(=O)O)(CC2)CC3)C(c2cccc(Cl)c2F)C2(C(=O)Nc3cc(Cl)ccc32)C12CCCCC2` (configuration not stated), the viability, T/C was 96.6% [middle of 9 runs] (compound 0.0949 µM), 95.2% [middle of 9 runs] (compound 0.3 µM) and 87.6% [middle of 9 runs] (compound 3 µM). The IC50 runs as follows: under setting [1], above 3000 nM; (curve of compound) above 3000 nM.

As to `CCN1CCN(Cc2ccc(Nc3ncc(F)c(-c4cc(F)c5nc(C)n(C(C)C)c5c4)n3)nc2)CC1`, the viability, T/C runs as follows: (compound 0.00316 µM) 91.8% and 94.4% and 104%; (compound 0.01 µM) 93.8% and 95.1% (2×); (compound 0.0316 µM) 99.1% and 98.7% and 102%; (compound 0.1 µM) 101% and 97.3% and 89.7%; (compound 0.316 µM) 72.4% and 84.1% and 82.4%; (compound 1 µM) 49.5% and 82.8% and 50.7%. Also, for the setting “curve of compound”, the IC50 was above 1000 nM.

As for `CNC(C)C(=O)NC1CN(S(=O)(=O)c2cccc(S(=O)(=O)N3CCC4CCC(C(=O)NC(c5ccccc5)c5ccccc5)N4C(=O)C(NC(=O)C(C)NC)C3)c2)CCC2CCC(C(=O)NC(c3ccccc3)c3ccccc3)N2C1=O` (configuration not stated), the viability, T/C (compound 0.0316 µM) is 72.8% [middle of 9 runs]. Also, the IC50 (curve of compound) is 254 nM and 416 nM.

On to `COc1c(OCCCN2CCOCC2)ccc2c3n(c(=NC(=O)c4cnc(N)nc4)nc12)CCN3`, for which the viability, T/C by setting is: (compound 0.00316 µM) 92% and 97.6% and 96.2%; (compound 0.01 µM) 90.5% and 100% and 93.7%; (compound 0.0316 µM) 73.5% and 93.8% and 80.6%; (compound 0.1 µM) 49.4% and 56.9% and 59.9%; (compound 0.316 µM) 25.9% and 37.9% and 33.4%; (compound 1 µM) 12.6% and 21.9% and 15.6%. The IC50 (curve of compound) is 149 nM and 158 nM and 103 nM.

For `Cc1c(S(C)(=O)=O)c(-c2cc(F)cc(N3CCN(c4ccc(NS(=O)(=O)c5ccc(NC(CCN6CCC(C(=O)OCCCP(=O)(O)O)CC6)CSc6ccccc6)c(S(=O)(=O)C(F)(F)F)c5)cc4)CC3)c2)c(-c2ccc(Cl)cc2)n1C(C)C` (configuration not stated), the viability, T/C by setting is: (compound 0.0316 µM) 98% [middle of 7 runs]; (compound 0.316 µM) 93.2% [middle of 7 runs]; (compound 3.16 µM) 81% [middle of 7 runs]. Also, the IC50 under setting [1] was above 10000 nM.

`Cc1nc(N2CCC3(CC2)COC(C)C3N)c(CO)nc1Sc1ccnc(N)c1Cl` (configuration not stated): the viability, T/C was 108% and 113% and 102% (compound 0.00949 µM); 83.1% and 90.6% and 95.5% (compound 0.03 µM); 79.3% and 103% and 99.2% (compound 0.0949 µM); 73.6% and 89.4% and 77.2% (compound 0.3 µM); 59.2% and 66.4% and 64.5% (compound 0.949 µM); 43.2% and 58.9% and 51% (compound 3 µM). Besides, under “curve of compound”, the IC50 was 2000 nM and > 3000 nM.

For the compound `Cn1ncnc1[C@H]1c2n[nH]c(=O)c3cc(F)cc(c23)N[C@@H]1c1ccc(F)cc1`, the viability, T/C by setting is: (compound 0.000316 µM) 99% and 111% and 93.9%; (compound 0.001 µM) 81.6% and 81.9% and 107%; (compound 0.00316 µM) 80.5% and 107% and 99%; (compound 0.01 µM) 89.2% and 87.3% and 89%; (compound 0.0316 µM) 68.7% and 96.5% and 83%; (compound 0.1 µM) 70.7% and 81% and 56.7%. Moreover, under “curve of compound”, the IC50 was above 100 nM.

As for `NC(=O)C(=Cn1cnc(-c2cc(C(F)(F)F)cc(C(F)(F)F)c2)n1)c1cncnc1`, the viability, T/C (compound 0.000949 µM) is 92.5% and 89.6% and 23.9%; the viability, T/C (compound 0.003 µM) is 88.1% and 74.5% and 25.9%; the viability, T/C (compound 0.00949 µM) was 92.4% and 72% and 36.3%; the viability, T/C (compound 0.03 µM) was 45.8% and 39.8% and 16%; the viability, T/C (compound 0.0949 µM) was 6.6% and 6.29% and 7.34%; the viability, T/C (compound 0.3 µM) was 3.75% and 1.91% and 3.91%.

`NC1CCC(NC2CC2c2ccccc2)CC1` (configuration not stated): the viability, T/C was 107% and 84.4% and 104% (compound 0.000316 µM); 97.8% and 80.7% and 96.1% (compound 0.001 µM); 84.8% and 99.5% and 109% (compound 0.00316 µM); 95.1% and 93.7% and 104% (compound 0.01 µM); 91.5% and 112% and 96.1% (compound 0.0316 µM); 97.7% and 80.4% and 90% (compound 0.1 µM). In addition, the IC50 (curve of compound) is above 100 nM.

`O=C(c1cc(Cc2n[nH]c(=O)c3ccccc23)ccc1F)N1CCN(C(=O)C2CC2)CC1`: the viability, T/C is, setting by setting: (compound 0.0316 µM) 106% and 111% and 91.2%; (compound 0.1 µM) 76.1% and 100% and 97%; (compound 0.316 µM) 110% and 87.8% and 93.8%; (compound 1 µM) 83% and 101% and 88.7%; (compound 3.16 µM) 82.7% and 84.3% and 47.8%; (compound 10 µM) 42.5% and 46.9% and 32.5%. The IC50 (curve of compound) was 8070 nM and 9240 nM and 2970 nM.

Take `O=C(c1ccc(F)c(F)c1Nc1ccc(I)cc1F)N1CC(O)([C@@H]2CCCCN2)C1`: the viability, T/C was 97% and 91.5% and 98.6% (compound 0.00316 µM); 102% and 91.8% and 91% (compound 0.01 µM); 109% and 88.6% and 93.6% (compound 0.0316 µM); 94.1% and 119% and 117% (compound 0.1 µM); 65.2% and 71.6% and 81.1% (compound 0.316 µM); 19.6% and 18.1% and 25% (compound 1 µM). The IC50 (curve of compound) was 462 nM and 504 nM and 599 nM.
